Measurements: US11857519B2, “Compounds and methods for the targeted degradation of enhancer of zeste homolog 2 polypeptide” (Arvinas Operations, Inc., priority 2016, dated 2024)

Molecular target: T1, EZH2 (Homo sapiens, UniProt Q15910)
T1 construct: Protocol of the Cellular Assay of Target Protein Degradation (VCaP Cells, ELISA); endogenous in cells; host or cells: VCaP cells
Assay: Cellular assay of target protein degradation (VCaP cells, ELISA)
Format: cell-based
Details: 4 hours, protein degradation range at indicated concentration (relative to DMSO control)
Outline: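 EZH2 level measured by sandwich ELISA (TMB, A450 minus A562 background) in lysates of VCaP cells. Cells had been cultured at least 3 days in 5% CSS RPMI before 4 h compound exposure in 0.1% DMSO.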

T1 sequence (Q15910 whole entry): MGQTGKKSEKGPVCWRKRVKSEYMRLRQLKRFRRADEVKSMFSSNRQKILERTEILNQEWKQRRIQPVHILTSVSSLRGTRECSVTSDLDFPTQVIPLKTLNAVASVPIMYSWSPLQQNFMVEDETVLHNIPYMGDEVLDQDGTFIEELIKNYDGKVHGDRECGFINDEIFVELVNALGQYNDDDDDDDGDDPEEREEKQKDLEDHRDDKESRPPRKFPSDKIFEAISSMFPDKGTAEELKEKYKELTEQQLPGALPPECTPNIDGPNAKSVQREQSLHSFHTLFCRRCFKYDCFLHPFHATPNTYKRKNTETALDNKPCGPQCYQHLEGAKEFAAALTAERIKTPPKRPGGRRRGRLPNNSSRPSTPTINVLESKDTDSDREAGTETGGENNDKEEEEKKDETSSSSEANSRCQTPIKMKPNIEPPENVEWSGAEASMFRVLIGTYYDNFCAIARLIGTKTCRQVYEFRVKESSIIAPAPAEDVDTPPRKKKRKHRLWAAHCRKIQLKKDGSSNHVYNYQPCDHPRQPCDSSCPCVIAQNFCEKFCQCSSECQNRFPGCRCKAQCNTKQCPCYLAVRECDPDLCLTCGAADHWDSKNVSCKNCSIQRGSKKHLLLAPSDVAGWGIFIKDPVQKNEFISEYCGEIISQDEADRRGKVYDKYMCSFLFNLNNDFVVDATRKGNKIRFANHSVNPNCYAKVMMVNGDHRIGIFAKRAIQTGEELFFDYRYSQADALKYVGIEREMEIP
T1 sequence (O75530 whole entry partner): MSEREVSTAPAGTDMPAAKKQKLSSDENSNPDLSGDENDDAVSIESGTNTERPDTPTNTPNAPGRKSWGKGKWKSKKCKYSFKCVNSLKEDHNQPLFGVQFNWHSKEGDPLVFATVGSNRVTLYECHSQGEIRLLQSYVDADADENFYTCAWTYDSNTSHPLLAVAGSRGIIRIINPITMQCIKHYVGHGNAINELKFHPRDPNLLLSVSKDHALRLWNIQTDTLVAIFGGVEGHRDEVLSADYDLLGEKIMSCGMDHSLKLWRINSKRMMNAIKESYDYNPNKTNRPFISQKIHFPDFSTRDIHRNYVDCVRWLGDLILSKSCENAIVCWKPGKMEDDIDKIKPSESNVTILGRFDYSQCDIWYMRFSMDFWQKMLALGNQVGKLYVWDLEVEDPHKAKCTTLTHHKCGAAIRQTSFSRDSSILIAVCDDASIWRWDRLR
T1 sequence (Q15022 whole entry partner): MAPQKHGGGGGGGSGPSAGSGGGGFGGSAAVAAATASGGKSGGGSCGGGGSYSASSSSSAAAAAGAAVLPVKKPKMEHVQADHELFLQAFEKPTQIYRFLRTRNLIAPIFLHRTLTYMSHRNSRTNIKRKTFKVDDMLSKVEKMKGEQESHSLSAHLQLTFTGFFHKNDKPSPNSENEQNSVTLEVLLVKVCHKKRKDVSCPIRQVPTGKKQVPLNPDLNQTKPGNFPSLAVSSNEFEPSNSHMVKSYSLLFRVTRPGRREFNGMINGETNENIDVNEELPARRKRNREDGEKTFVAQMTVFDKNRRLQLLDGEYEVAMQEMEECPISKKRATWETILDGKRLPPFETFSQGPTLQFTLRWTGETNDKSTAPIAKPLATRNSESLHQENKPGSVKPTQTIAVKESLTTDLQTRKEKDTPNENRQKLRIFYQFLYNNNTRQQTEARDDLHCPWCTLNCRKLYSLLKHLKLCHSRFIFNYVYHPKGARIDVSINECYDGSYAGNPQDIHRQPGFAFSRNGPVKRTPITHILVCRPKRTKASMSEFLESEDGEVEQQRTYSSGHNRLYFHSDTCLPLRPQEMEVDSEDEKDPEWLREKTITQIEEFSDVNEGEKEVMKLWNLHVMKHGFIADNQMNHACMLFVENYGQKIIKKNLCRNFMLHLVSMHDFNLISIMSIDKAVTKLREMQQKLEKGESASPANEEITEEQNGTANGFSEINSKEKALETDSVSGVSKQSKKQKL

SMILES	percent target protein degradation class
CCN(c1cc(-c2ccc(N3CCN(CCCCOCC(=O)N[C@H](C(=O)N4C[C@H](O)C[C@H]4C(=O)N[C@@H](C)c4ccc(-c5scnc5C)cc4)C(C)(C)C)CC3)cc2)cc(C(=O)NCc2c(C)cc(C)[nH]c2=O)c1C)C1CCOCC1 [Compound 59, (2S,4R)-1-((S)-2-(2-(4-(4-(3′-(((4,6-dimethyl-2-oxo-1,2-dihydropyridin-3-yl)methyl)carbamoyl)-5′-(ethyl(tetrahydro-2H-pyran-4-yl)amino)-4′-methyl-[1,1′-biphenyl]-4-yl)piperazin-1-yl)butoxy)acetamido)-3,3-dimethylbutanoyl)-4-hydroxy-N-((S)-1-(4-(4-methylthiazol-5-yl)phenyl)ethyl)pyrrolidine-2-carboxamide]	B (B = degradation between 30% and 60%)
CCN(c1cc(-c2ccc(OCCCOCCOCCOc3cc(-c4scnc4C)ccc3CNC(=O)[C@@H]3C[C@@H](O)CN3C(=O)[C@H](C(C)C)N3Cc4ccccc4C3=O)cc2)cc(C(=O)NCc2c(C)cc(C)[nH]c2=O)c1C)C1CCOCC1 [Compound 54, (2S,4R)-N-({2-[2-(2-{3-[4-(3-{[(4,6-dimethyl-2-oxo-1,2-dihydropyridin-3-yl)methyl]carbamoyl}-5-[ethyl(oxan-4-yl)amino]-4-methylphenyl)phenoxy]propoxy}ethoxy)ethoxy]-4-(4-methyl-1,3-thiazol-5-yl)phenyl}methyl)-4-hydroxy-1-[(2S)-3-methyl-2-(1-oxo-2,3-dihydro-1H-isoindol-2-yl)butanoyl]pyrrolidine-2-carboxamide]	B (B = degradation between 30% and 60%)
CCN(c1cc(-c2ccc(OCCOCCOCCOCCOCCOCC(=O)N[C@H](C(=O)N3C[C@H](O)C[C@H]3C(=O)NCc3ccc(-c4scnc4C)cc3)C(C)(C)C)cc2)cc(C(=O)NCc2c(C)cc(C)[nH]c2=O)c1C)C1CCOCC1 [Compound 15, (2S,4R)-1-[(2S)-2-{1-[4-(3-{[(4,6-dimethyl-2-oxo-1,2-dihydropyridin-3-yl)methyl]carbamoyl}-5-[ethyl(oxan-4-yl)amino]-4-methylphenyl)phenyl]-1,4,7,10,13,16-hexaoxaoctadecan-18-amido}-3,3-dimethylbutanoyl]-4-hydroxy-N-{[4-(4-methyl-1,3-thiazol-5-yl)phenyl]methyl}pyrrolidine-2-carboxamide]	B (B = degradation between 30% and 60%)
CCN(c1cc(-c2ccc(OCCOCCOCCOc3ccc(CCN4CC[C@@H]5CCN(C(=O)[C@@H](NC(=O)[C@H](C)NC)C6CCCCC6)[C@@H]5C4)cc3)cc2)cc(C(=O)NCc2c(C)cc(C)[nH]c2=O)c1C)C1CCOCC1 (racemic) [Compound 26, 5-[4-(2-{2-[2-(4-{2-[(3aR,7aS)-1-[(2S)-2-cyclohexyl-2-[(2S)-2-(methylamino)propanamido]acetyl]-octahydro-1H-pyrrolo[2,3-c]pyridin-6-yl]ethyl}phenoxy)ethoxy]ethoxy}ethoxy)phenyl]-N-[(4,6-dimethyl-2-oxo-1,2-dihydropyridin-3-yl)methyl]-3-[ethyl(oxan-4-yl)amino]-2-methylbenzamide]	B (B = degradation between 30% and 60%)
CCN(c1cc(-c2ccc(OCCCN3CCN(c4ccc5c(c4)C(=O)N(C4CCC(=O)NC4=O)C5=O)CC3)cc2)cc(C(=O)NCc2c(C)cc(C)[nH]c2=O)c1C)C1CCOCC1 (stereo not shown) [Compound 61, N-[(4,6-dimethyl-2-oxo-1,2-dihydropyridin-3-yl)methyl]-5-[4-(3-{4-[2-(2,6-dioxopiperidin-3-yl)-1,3-dioxo-2,3-dihydro-1H-isoindol-5-yl]piperazin-1-yl}propoxy)phenyl]-3-[ethyl(oxan-4-yl)amino]-2-methylbenzamide]	B (B = degradation between 30% and 60%)
CCN(c1cc(-c2ccc(OCCOCCOCCOCCNc3cccc4c3C(=O)N(C3CCC(=O)NC3=O)C4=O)cc2)cc(C(=O)NCc2c(C)cc(C)[nH]c2=O)c1C)C1CCOCC1 (stereo not shown) [Compound 17, N-[(4,6-dimethyl-2-oxo-1,2-dihydropyridin-3-yl)methyl]-5-[4-({1-[2-(2,6-dioxopiperidin-3-yl)-1,3-dioxo-2,3-dihydro-1H-isoindol-4-yl]-4,7,10-trioxa-1-azadodecan-12-yl}oxy)phenyl]-3-[ethyl(oxan-4-yl)amino]-2-methylbenzamide]	B (B = degradation between 30% and 60%)
CCN(c1cc(-c2ccc(OCCOCCOCCOCC(=O)N[C@H](C(=O)N3C[C@H](O)C[C@H]3C(=O)NCc3ccc(-c4scnc4C)cc3)C(C)(C)C)cc2)cc(C(=O)NCc2c(C)cc(C)[nH]c2=O)c1C)C1CCOCC1 [Compound 13, (2S,4R)-1-[(2S)-2-{1-[4-(3-{[(4,6-dimethyl-2-oxo-1,2-dihydropyridin-3-yl)methyl]carbamoyl}-5-[ethyl(oxan-4-yl)amino]-4-methylphenyl)phenyl]-1,4,7,10-tetraoxadodecan-12-amido}-3,3-dimethylbutanoyl]-4-hydroxy-N-{[4-(4-methyl-1,3-thiazol-5-yl)phenyl]methyl}pyrrolidine-2-carboxamide]	B (B = degradation between 30% and 60%)
CCN(c1cc(-c2ccc(OCCOCCOCCOc3ccc(-c4csc([C@@H]5CCCN5C(=O)[C@@H](NC(=O)[C@H](C)NC)C5CCCCC5)n4)c4ccccc34)cc2)cc(C(=O)NCc2c(C)cc(C)[nH]c2=O)c1C)C1CCOCC1 [Compound 28, 5-{4-[2-(2-{2-[(4-{2-[(2S)-1-[(2S)-2-cyclohexyl-2-[(2S)-2-(methylamino)propanamido]acetyl]pyrrolidin-2-yl]-1,3-thiazol-4-yl}naphthalen-1-yl)oxy]ethoxy}ethoxy)ethoxy]phenyl}-N-[(4,6-dimethyl-2-oxo-1,2-dihydropyridin-3-yl)methyl]-3-[ethyl(oxan-4-yl)amino]-2-methylbenzamide]	B (B = degradation between 30% and 60%)
CCN(c1cc(-c2ccc(OCCOCCOCCOCCOc3cc(-c4scnc4C)ccc3CNC(=O)[C@@H]3C[C@@H](O)CN3C(=O)[C@H](C(C)C)N3Cc4ccccc4C3=O)cc2)cc(C(=O)NCc2c(C)cc(C)[nH]c2=O)c1C)C1CCOCC1 [Compound 36, (2S,4R)-N-{[2-({1-[4-(3-{[(4,6-dimethyl-2-oxo-1,2-dihydropyridin-3-yl)methyl]carbamoyl}-5-[ethyl(oxan-4-yl)amino]-4-methylphenyl)phenyl]-1,4,7,10-tetraoxadodecan-12-yl}oxy)-4-(4-methyl-1,3-thiazol-5-yl)phenyl]methyl}-4-hydroxy-1-[(2S)-3-methyl-2-(1-oxo-2,3-dihydro-1H-isoindol-2-yl)butanoyl]pyrrolidine-2-carboxamide]	B (B = degradation between 30% and 60%)
CCN(c1cc(-c2ccc(OCCOCCOCCOCCOCCOCCOCCOCCNc3cccc4c3C(=O)N(C3CCC(=O)NC3=O)C4=O)cc2)cc(C(=O)NCc2c(C)cc(C)[nH]c2=O)c1C)C1CCOCC1 (stereo not shown) [Compound 22, N-[(4,6-dimethyl-2-oxo-1,2-dihydropyridin-3-yl)methyl]-5-[4-({1-[2-(2,6-dioxopiperidin-3-yl)-1,3-dioxo-2,3-dihydro-1H-isoindol-4-yl]-4,7,10,13,16,19,22-heptaoxa-1-azatetracosan-24-yl}oxy)phenyl]-3-[ethyl(oxan-4-yl)amino]-2-methylbenzamide]	B (B = degradation between 30% and 60%)
